Measurements as given in US7411076B2, “Coumarin derivative” (Institute of Medicinal Molecular Design, Inc., priority 2002, dated 2008).

tested on: Jurkat cells; experiment: Jurkat cell proliferation, compound alone or in combination with bleomycin, living cells counted by the MTS method; format: cell-based; conditions: Jurkat cells, combined with bleomycin 5 μg/ml or 10 μg/ml, 36 hours, survival rate vs DMSO control
Description: By using these compounds, effects on proliferation of Jurkat cells by sole administration and inhibitory effects on cell proliferation by administration in combination with bleomycin were examined. Materials and methods are as follows. Jurkat cells obtained from Dainippon Pharmaceutical Co. Ltd. were inoculated at about 10,000 cells per well in a 96 well culture plate, and incubated in 10% bovine fetal serum (Irvine Scientific) supplemented with RPMI1640(ICN) medium in 5% CO2 incubator at 37° C. […] 36 hours after the incubation, the number of living cells was counted by the MTS method.
More specifically, 20 μl of CellTiter96™ AQueous One Solution (Promega) was added per one well, and after the cells were incubated for additional one hour, an absorbance at 490 nm was measured by using a microplate reader. The same culture added with DMSO as a solvent at final concentration of 0.25% was used as a control. The number of cells in the control was considered as 100% survival rate, and for each compound, survival rates by sole administration or a combined administration were calculated. […] In the table, ++ indicates observation of remarkable enhancement, + indicates moderated enhancement, and ± indicates weak enhancement.

Row | Compound | Activity (enhancement of the inhibitory effect of bleomycin on cell proliferation)
1 | O=C(Nc1cc2ccc(O)cc2oc1=O)c1cccs1 [Compound 26, N-(7-hydroxy-2-oxo-2H-1-benzopyran-3-yl)-2-thiophenecarboxamide] | ±
2 | COc1ccccc1C(=O)Nc1cc2ccc(O)cc2oc1=O [Compound 15, N-(7-hydroxy-2-oxo-2H-1-benzopyran-3-yl)-2-methoxybenzamide] | ±
3 | O=C(Nc1cc2ccc(O)cc2oc1=O)c1ccc([N+](=O)[O-])cc1 [Compound 20, N-(7-hydroxy-2-oxo-2H-1-benzopyran-3-yl)-4-nitrobenzamide] | ±
4 | N#Cc1ccc(C(=O)Nc2cc3ccc(O)cc3oc2=O)cc1 [Compound 22, 4-cyano-N-(7-hydroxy-2-oxo-2H-1-benzopyran-3-yl)benzamide] | +
5 | COC(=O)c1ccc(C(=O)Nc2cc3ccc(O)cc3oc2=O)cc1 [Compound 21, 4-[[N-(7-hydroxy-2-oxo-2H-1-benzopyran-3-yl)amino]carbonyl]benzoic acid methyl ester] | ±
6 | COc1cccc(C(=O)Nc2cc3ccc(O)cc3oc2=O)c1 [Compound 16, N-(7-hydroxy-2-oxo-2H-1-benzopyran-3-yl)-3-methoxybenzamide] | ±
7 | O=C(Nc1cc2ccc(O)cc2oc1=O)c1ccccc1Cl [Compound 2, 2-chloro-N-(7-hydroxy-2-oxo-2H-1-benzopyran-3-yl)benzamide] | +
8 | O=C(Nc1cc2ccc(O)cc2oc1=O)c1ccc(F)cc1 [Compound 6, 4-fluoro-N-(7-hydroxy-2-oxo-2H-1-benzopyran-3-yl)benzamide] | ±
9 | O=C(Nc1cc2ccc(O)cc2oc1=O)c1ccc2c(c1)OCO2 [Compound 28, N-(7-hydroxy-2-oxo-2H-1-benzopyran-3-yl)-1,3-benzodioxole-5-carboxamide] | ±
10 | O=C(Nc1cc2ccc(O)cc2oc1=O)c1cccnc1Cl [Compound 27, 2-chloro-N-(7-hydroxy-2-oxo-2H-1-benzopyran-3-yl)-3-pyridinecarboxamide] | ±
11 | O=C(Nc1cc2ccc(O)cc2oc1=O)c1ccco1 [Compound 25, N-(7-hydroxy-2-oxo-2H-1-benzopyran-3-yl)-2-furancarboxamide] | ±
12 | Cc1ccccc1C(=O)Nc1cc2ccc(O)cc2oc1=O [Compound 8, N-(7-hydroxy-2-oxo-2H-1-benzopyran-3-yl)-2-methylbenzamide] | +
13 | O=C(Nc1cc2ccc(O)cc2oc1=O)c1ccccc1 [Compound 1, N-(7-hydroxy-2-oxo-2H-1-benzopyran-3-yl)benzamide] | ±
14 | CC(C)(C)C(=O)Nc1cc2ccc(O)cc2oc1=O [Compound 29, N-(7-hydroxy-2-oxo-2H-1-benzopyran-3-yl)-2,2-dimethylpropanamide] | ±
15 | O=C(Nc1cc2ccc(O)cc2oc1=O)c1cccc2ccccc12 [Compound 23, N-(7-hydroxy-2-oxo-2H-1-benzopyran-3-yl)-1-naphthalenecarboxamide] | +
16 | O=C(Nc1cc2ccc(O)cc2oc1=O)c1ccc2ccccc2c1 [Compound 24, N-(7-hydroxy-2-oxo-2H-1-benzopyran-3-yl)-2-naphthalenecarboxamide] | ±
17 | O=C(Cc1ccccc1)Nc1cc2ccc(O)cc2oc1=O [Compound 30, N-(7-hydroxy-2-oxo-2H-1-benzopyran-3-yl)benzeneacetamide] | +
18 | O=C(Nc1cc2ccc(O)cc2oc1=O)c1ccc(C(F)(F)F)cc1 [Compound 13, N-(7-hydroxy-2-oxo-2H-1-benzopyran-3-yl)-4-(trifluoromethyl)benzamide] | +
19 | O=C(Nc1cc2ccc(O)cc2oc1=O)c1cccc(Cl)c1 [Compound 3, 3-chloro-N-(7-hydroxy-2-oxo-2H-1-benzopyran-3-yl)benzamide] | +
20 | O=C(Nc1cc2ccc(O)cc2oc1=O)c1ccc(Cl)cc1 [Compound 5, 4-chloro-N-(7-hydroxy-2-oxo-2H-1-benzopyran-3-yl)benzamide] | ±
21 | O=C(Nc1cc2ccc(O)cc2oc1=O)c1ccc(-c2ccccc2)cc1 [Compound 14, N-(7-hydroxy-2-oxo-2H-1-benzopyran-3-yl)-[1,1′-biphenyl]-4-carboxamide] | ++
22 | O=C(Nc1cc2ccc(O)cc2oc1=O)c1cccc(Br)c1 [Compound 4, 3-bromo-N-(7-hydroxy-2-oxo-2H-1-benzopyran-3-yl)benzamide] | +

same assay, conditions: bleomycin alone at 5 μg/ml or 10 μg/ml, 36 hours, DMSO control = 100% survival

Row | Compound | decrease in the survival rates of the Jurkat cells
23 | bleomycin [reference compound] | 5 to 10%
